Assay results reported in patent US20260069693A1, “UROLITHINS AND T-CELL MEDIATED IMMUNE RESPONSE” (priority 2022, published 2026).

Assays:
Pink1^−/− T cells = assay: aCD3/aCD28 stimulation of Pink1-/- T cells in presence of UA; type: cell-based, mice
From the text: UA activates mitophagy in myocytes and hippocampal neurons via a Pink1/Parkin mediated stress-response (D'Amico et al., 2021). […] Moreover, UA stabilized Parkin protein expression (FIG. 4G). To functionally confirm the dependence of UA induced TSCM formation on Pink1/Parkin mediated mitophagy, the inventors activated Pink1^−/− T cells in the presence or absence of UA. Loss of Pink1 prevented the UA-induced lysosome formation as well as the decrease in mitochondrial content (FIG. 4H, I).
(§1) Splenic murine T cells were isolated from mice aged 6-20 weeks by negative selection with EasySep mouse T cell isolation kit (Stem cell) according to the manufacturer's instructions. To monitor T cell proliferation, purified T cells were loaded with CellTrace Violet (C34557 ThermoFisher Scientific). T cell activation was initiated using αCD3/CD28 activation beads (11456D; ThermoFisher Scientific) at a ratio of 25 μl dynabeads per 0.5×10^6 T-cells. Cells were activated with 25-50 μM Urolithin A (Tocris) or DMSO in T cell activation Medium (RPMI (ThermoFisher Scientific) 10% FBS (South America origin), 10 mM Hepes (Sigma), 1× Non-Essential Amino Acid, 1 mM Sodium Pyruvate, 50 μM B-Mercaptoethanol, 100 U/ml penicillin, 100 μg/ml streptomycin and 2 mM Glutamax (ThermoFisher Scientific) for the indicated durations. In selected experiments, cells were stimulated in the presence of inhibitors, namely TCF1i (ICG-001; SelleckChem; 10 μM) and PGC-1αi (SR-18292, Sigma-Aldrich; 10 μm,). For subsequent analysis, activating beads were magnetically removed prior antibody staining. For human T cells, peripheral blood mononuclear cells were purified with a Ficoll-Paque (GE healthcare) gradient. T cells were enriched with EasySep Human T Cell Isolation Kit (StemCell) and activated with dynabead Human T-Activator CD3/CD28 for T Cell Expansion and Activation Kit (11131D; ThermoFisher Scientific), similar to murine T cell stimulation.
(§2) For flow cytometric analysis of mitochondria and lysosomes 500 μl of Mitotracker Red (200 nM; ThermoFisher) or Lysotracker Red DND-99 (75 nM; ThermoFisher) were applied followed by surface staining. To study changes in mitochondrial membrane potential, Mitoprobe TMRM kit (ThermoFisher) was used according to the manufacturer's instructions. Cell proliferation was assessed by CellTrace Violet (Invitrogen, C34557) at a concentration of 5 μM according to manufacturer's instructions. For human samples, cells were stained as described above with Fixable Viability Dye-eF780, αCD95-BV421 (DX2; 562616), αCD62L-PE (DREG-56; 555544), αCCR7-AF700 (150503; 561143), αCD45RO-APC (UCHL; 559865), αCD45RA-FITC (HI100; 555488), αCD8-PE-CF594 (RPA-T8; 562282) and αCD4-BV786 (OKT4; 566806) from BD.

Pgam5^−/− CD8^+ T cells = assay: aCD3/aCD28 stimulation of Pgam5-/- T cells in presence of UA; type: cell-based, mice
From the text: Next the inventors examined whether the observed upregulation of TCF1 was a result of enhanced Wnt signalling. […] To explore whether Pgam5 may be involved in UA-induced Wnt activation, the inventors examined Pgam5 localization upon UA administration. […] More importantly, Pgam5 loss blocked the UA-dependent expansion of CD44^−CD62L^+Sca1^Hi TSCM cells (FIG. 5I).
as §1, §2

OT-1 T cells = assay: adoptive transfer of UA-treated OT-1 T cells, engraftment; type: in vivo, Rag1^−/− mice; conditions: seven days after transfer of T cells stimulated 48 h with UA (25 μM) vs DMSO
From the text: Adoptive cell transfer (ACT) represents the infusion of antigen-specific leukocytes with direct antitumor activity, yet identification, selection and expansion of lymphocyte subsets harboring optimal antitumor qualities remains one of the most crucial challenges (Rosenberg and Restifo, 2015). ACT benefits especially from minimally differentiated cells due to their improved survival and long-term potential to generate unexhausted effector cells (Luca Gattinoni et al; Mo et al., 2021; Roberto et al., 2015). In particular, CD8^+ T cells restricted in a stem-like state have been associated with enhanced tumor suppressive properties upon adoptive cell transfer (Enrico Lugli et al; Verma et al., 2021). […] The inventors cultured T cells from OT-1 donor mice (FIG. 3A) for 48 hours in the presence of UA or vehicle control, followed by adoptive transfer into immunodeficient Rag1^−/− mice. […] Moreover, consistent with an improved memory response, animals receiving UA-pretreated T cells contained less Tim3^HiPD1^Hi terminally exhausted CD8^+ T cells in the TME (FIG. 3I). Thus, UA augments immune-mediated antitumor memory upon adoptive cell transfer.
For adoptive cell transfer transfer, purified splenic T cell from OT1 mice were isolated and activated using aCD3/aCD28 stimulation beads for 48 h. […] Tumor growth was assessed as described above. […]

[1] = commercially-available supplements containing UA; cited from earlier work
[2] = UA treated Pgam5-/- CD8+ T cells, 48 h

## O=c1oc2cc(O)ccc2c2ccc(O)cc12 [UA, Urolithin A]
Pink1^−/− T cells; Loss of Pink1, 6 h, UA 50 μM
  UA-induced lysosome formation: prevented
Pink1^−/− T cells; Loss of Pink1, 48 h, UA 50 μM
  UA-induced decrease in mitochondrial content: prevented
Pink1^−/− T cells; Pink1-/- CD8+ T cells upon UA exposure
  cytoplasmic expression of Pgam5: lack of cytoplasmic expression
Pink1^−/− T cells; Pink1-/- CD8+ T cells, 48 h, UA 50 μM
  PGC-1a: failed to enhance
Pink1^−/− T cells; Pink1-/- CD8+ T cells, 48 h, UA 25 and 50 μM
  TSCM phenotype: failed to exhibit a TSCM phenotype
Pink1^−/− T cells; Pink1-/-, 48 h, UA 50 μM
  TCF-1 in CD44-CD62L+CD8+ T cells: less
Pgam5^−/− CD8^+ T cells; Pgam5-/- CD8+ T cells
  lysosome formation: still enhanced
  mitochondrial content: reduced
Pgam5^−/− CD8^+ T cells; Pgam5-/- CD8+ T cells, 48 h, UA 50 μM
  PGC-1a: failed to enhance
Pgam5^−/− CD8^+ T cells; Pgam5 loss, 48 h
  UA-dependent expansion of CD44-CD62L+Sca1Hi TSCM cells: blocked
Pgam5^−/− CD8^+ T cells; [2]
  TCF1: failed to upregulate
  memory marker CD95: failed to upregulate
OT-1 T cells
  number of engrafted (splenic) CD8+ T cells: significantly higher
[1]
  bioavailability profile in humans: favorable bioavailability profile
  safety in humans: deemed safe
